# Source: patent US20020155117A1, “METHOD FOR DETECTING ORGAN ALLOGRAFT REJECTION AND USES THEREOF” (priority 1996, published 2002)
# Ends that are not written are not given here.
# Columns and labels:
# Format in all cases: cell-based, human
# TCL LZ-anti-pp 21-42 = assay: Proliferation assay of TCL LZ-anti-pp 21-42; parameters: stimulation of TCL anti-pp 21-42 by overlapping 14-mer peptides: dose or concentration left out as unconfirmed
# Description: (§1) FIGS. 1A and 1B. Reactivity of TCLs to the immunizing peptides and to r DR1 proteins. The TCL LZ-anti-pp 1-20 […] and TCL LZ-anti-pp 21-42 […] were tested for reactivity to various concentrations of rDR1 protein and pp 1-20 pr pp 21-42 using 2×10^4 responding cells and 5×10^4 irradiated autologous APCs per well. Cultures were labeled after 48 hours and harvested 18 hours later. Results are expressed as mean cpm of triplicate cultures. The standard deviation of measure was less than 10%.
# FIGS. 2A and 2B. HLA-DR restriction of peptide recognition by TCLs. The TCL LZ-anti-pp 1-20 (FIG. 2A) and TCL LZ-anti-pp 21-42 (FIG. 2B) were stimulated with […] peptide (pp 1-20 for LZ-anti-pp 1-20 and pp 21-42 for LZ-anti-pp 21-42) in the presence of autologous and allogeneic APCs sharing with the responder one or no DR antigen. Assays were done as described in the description of FIGS. 1A and 1B.
# FIG. 3. Determination of the core epitope of the dominant determinant of DR1 molecule. TCL LZ-anti-pp 21-42 was stimulated in individual cultures with nine overlapping 14-mer peptides ([…]) moving along residues 21-42 in single residue steps. The reactions were set up as described in the description of FIGS. 1A and 1B.
# FIG. 4. Suppression of TCL reactivity by high concentrations of antigen. The proliferative response of TCL LZ-anti-pp 21-42 was tested as described in the description of FIGS. 1A and 1B using different concentrations of pp 22-35. The response was abolished at a concentration […].
# (§2) T cells were grown in 24 well plates (Nunc, Inc., Naperville, Ill.) in RPM1 1640 medium supplemented with 10% human AB serum, […] L-glutamine, and 50 μg/ml gentamicin (Gibco, Grand Island, N.Y.). On day 10, rIL-2 was added at 5 μ/ml. Fourteen days after priming, T cells were collected, washed and restimulated at 10^6/ml with antigen, in culture medium containing rIL-2 (20 u/ml) and irradiated (3000 rad) autologous PBMCs (2×10^6/ml). Following three stimulations, two TCLs, named LZ-anti-pp1-20 and LZ-anti-pp21-42, were obtained.
# Responding T cells (2×10^4/well) were cultured with irradiated APCs of responder or stimulator origin (5×10^4/well) in round bottom microtiter plates (Nunc Inc., Naperville, Ill.). Antigens were added to the cultures at the concentrations indicated. [^3H] thymidine (1 μCi/well) was added after 48 hours, and the cultures were harvested 18 hours later. [^3H] thymidine incorporation was measured in an LK Betaplate liquid scintillation counter (Wallace, Inc., Gaithersburg, Md.). Mean cpm in triplicate cultures and standard deviation of the mean were calculated.
# The immune response of mature T cells can paradoxically be suppressed by high doses of antigen (Suzuki et al., 1988; and Critchfield et al, 1994). The possibility of suppressing indirect allorecognition was explored by testing the reactivity of TCL LZ-anti-pp 21-42 to increasing concentrations of pp 22-35 in the presence of autologous APC. The reactivity of the line started to decline when the concentration of the peptide was increased above 3 μM (FIG. 4).
# (§3) T cells cultured with 27 μM of pp 22-35 lost viability (>90% Preputium iodide positive) within 72 hours, while T cells grown with high concentration of the irrelevant peptide alone were unaffected
# [1] = test system: IL-2 expanded PBMCs of DR11 positive heart allograft recipients; assay: Limiting dilution analysis (LDA) of Th frequency in the periphery, Example 1; details: for T helper cell frequency, circulation: + self PBMC
# Description: FIG. 6. Suppression of in vivo activated T cells by high doses of antigen. PBMCs obtained from patient […] on day 55 were expanded in IL-2 for 14 days and then tested in LDA (limiting dilution analysis) for reactivity to pp 22-35 at concentrations of […] in the presence of autologous APCs.
# The LDA study of Th frequency in the periphery was performed using the method described by Zhang et al. (Zhang et al., 1994) with some modifications. PBMCs were plated at 2×10^4, 1×10^4 and 5×10^3 cells per well (24 wells for each concentration) in 0.1 ml medium containing 40 U/ml of rIL-2. On day 7, 0.1 ml fresh medium with rIL-2 was added to each well. After 14 days, each culture was split into 3 aliquots: one was cultured with autologous (patient) irradiated PBMC (5×10^4/well), the second with autologous PBMC plus pp 22-35, and the third with donor spleen cells (5×10^4/well). The cultures were pulsed with [^3H] thymidine ([…]) after 48 hours and harvested 18 hours later.
# To establish whether the reactivity of in vivo activated T cells to peptide 22-35 can be suppressed by high concentrations of antigen the following experiment was performed: PBMC from […] were cultured for 14 days at different cell concentrations in medium with IL-2. Cultures were then tested in the presence of autologous APCs for reactivity to pp 22-35 at concentrations of 1 μM and 15 μM. At 1 μM of antigen there were 8×10^−6 reactive T cells while at 15 μM there was no reactivity (FIG. 6).
# [2] = test system: T cells infiltrating the graft; assay: Limiting dilution analysis of Th frequency among lymphocytes infiltrating the graft, Example 1; details: patient three, + self PBMC
# Excerpt: Biopsy tissue was washed twice with medium supplemented with 5 u/ml rIL-2. Cell growth was checked everyday. The medium was changed twice a week. T cells infiltrating the graft were further expanded in medium with rIL-2 for 7-14 days. When the cell number reached 1×10^6, they were harvested and plated at 400, 200 and 100 cells per well in the presence of autologous PBMC (5×10^4/per well) in 24 replicate cultures. Cultures were maintained and assayed for reactivity as described above. The precursor frequency of Th cells recognizing pp 22-35 and donor spleen cells was analyzed by Poisson statistics (Liu et al., 1992; and Zhang et al., 1994).
# [3] = test system: PBMC from a responder (LZ), expressing HLA-DR β1*1101/1201; assay: In vitro immunization of PBMC from responder LZ with DR1 peptides (blastogenesis with autologous APCs); details: peptide 5 μg/ml
# Description: Development of Allo-peptide Specific T Cell Lines for Epitope Mapping. PBMCs (at 10^6/ml) from a healthy person ([…]) with HLA-DRβ1*1101/1201 genotype were primed in individual cultures (Liu et al., 1992) with each or the following seven DR1 peptides(5 μg/ml) spanning the first domain of the Drβ1*0101 chain:
# as §2
# To monitor indirect recognition in allograft recipients, a determination was made as to whether T cell recognize one or more peptides resulting from the processing of an allogeneic MHC molecule by responder APCs. For this, in vitro PBMC were immunized from a responder (LZ), expressing HLA-DR β1*1101/1201, with seven partially overlapping peptides corresponding to the first domain of the Drβ1*0101 molecule. […] The resulting T cell lines were tested for their ability to recognize native rDR1 molecule at various protein concentrations.
# TCL LZ-anti-pp 1-20 = assay: Proliferation assay of TCL LZ-anti-pp 1-20
# Description: as §1
# FIGS. 2A and 2B. HLA-DR restriction of peptide recognition by TCLs. The TCL LZ-anti-pp 1-20 (FIG. 2A) and TCL LZ-anti-pp 21-42 (FIG. 2B) were stimulated with […] peptide (pp 1-20 for LZ-anti-pp 1-20 and pp 21-42 for LZ-anti-pp 21-42) in the presence of autologous and allogeneic APCs sharing with the responder one or no DR antigen. Assays were done as described in the description of FIGS. 1A and 1B. […]
# Responding T cells (2×10^4/well) were cultured with irradiated APCs of responder or stimulator origin (5×10^4/well) in round bottom microtiter plates (Nunc Inc., Naperville, Ill.). […] [^3H] thymidine incorporation was measured in an LK Betaplate liquid scintillation counter (Wallace, Inc., Gaithersburg, Md.). Mean cpm in triplicate cultures and standard deviation of the mean were calculated.
# [4] = test system: TCL LZ-anti-pp 21-42 T cells; assay: Viability of T cells cultured with high peptide concentration (Preputium iodide); details: high concentration of the irrelevant peptide alone
# Description: as §3
# TCL-PR = assay: Proliferative response of TCL-PR to DR4 peptide
# Excerpt: The identification of the core epitope of the DR4/69-88 peptide has been accomplished. […] The peptide KRAAVDTYCRHNYG carries the expected anchor residues required by the peptide binding motif of the DTRβ1*1101 restriction molecule (i+7) as well as the TCR contact residues involved in the stimulation of TCL-PR.
# The objective of these studies is to establish whether high doses of dominant peptide are tolerogenic. To increase resistance against enzymatic degradation D-Lysine is placed at the N-terminus and the C-terminus is amidated. We have established that the optimal dose of the dominant peptide (4/71-84) required for inducing maximal proliferation of TCR-PR is 5 μg/ml or approximately 5×10^−7M. Increasing concentration of peptide 4/71-84 (ranging from 10^−8 to 10^−4M) may be used to determine the dose required to reduce proliferation to the background values observed in cultures with APCs and no peptide. The viability of the cells will be assayed and physiological studies will be performed to determine whether the lack of proliferation results from the induction of enery of apoptosis.
substance,measurement,setting,value
"ERVRLLERCIYNQE [pp 22-35, ERVRLLERCIYNQE]",peptide concentration at which the proliferative response was abolished,TCL LZ-anti-pp 21-42; FIG. 4 legend,27 µM
same,peptide concentration above which reactivity of the line started to decline,"TCL LZ-anti-pp 21-42; autologous APC, FIG. 4",above 3 μM
same,peptide concentration for complete suppression of TCL reactivity,"TCL LZ-anti-pp 21-42; autologous APC, FIG. 4",27 µM
same,stimulation of TCL anti-pp 21-42 by overlapping 14-mer peptides,"TCL LZ-anti-pp 21-42; autologous APCs, FIG. 3",stimulated strongly
same,TCL-ZL response to pp 22-35,TCL LZ-anti-pp 21-42; pp 22-35,17×10^3 cpm
same,reactive T cells in LDA at low antigen concentration,"[1]; patient PBMC (day 55), 1 μM of antigen, autologous APCs, FIG. 6",8×10^−6
same,reactive T cells in LDA at high antigen concentration,"[1]; patient PBMC (day 55), 15 μM of antigen, autologous APCs, FIG. 6",no reactivity
same,"T helper cell frequency, circulation","[1]; patient one, 1 Mo after transplantation",0
same,"T helper cell frequency, circulation","[1]; patient one, 12 Mo after transplantation (chronic rejection)",6×10^−6
same,"T helper cell frequency, circulation","[1]; patient one, 12 Mo after transplantation (chronic rejection), listed as pp22-35",6.0 × 10^−6
same,"T helper cell frequency, circulation","[1]; patient three, 27 d after transplantation",0
same,"T helper cell frequency, circulation","[1]; patient three, 41 d after transplantation",7.4×10^−6
same,"T helper cell frequency, circulation","[1]; patient three, 41 d after transplantation, listed as pp22-35",7.4 × 10^−6
same,"T helper cell frequency, circulation","[1]; patient three, 55 d after transplantation (acute rejection), listed as pp22-35",8.0 × 10^−6
same,"T helper cell frequency, circulation","[1]; patient three, 55 d after transplantation (acute rejection), listed as pp-22-35",8×10^−6
same,"T helper cell frequency, circulation","[1]; patient three, 82 d after transplantation (acute rejection), listed as pp22-35",6.5 × 10^−6
same,"T helper cell frequency, circulation","[1]; patient three, 82 d after transplantation (acute rejection), listed as pp-22-35",6.5e-06
same,"T helper cell frequency, circulation","[1]; patient two, 12 Mo after transplantation",failed to react
same,"T helper cell frequency, circulation","[1]; patient two, 12 Mo after transplantation, listed as pp22-35",0
same,"T helper cell frequency, graft",[2]; 55 d biopsy,4.3×10^−4
same,"T helper cell frequency, graft","[2]; 55 d biopsy, listed as pp22-35",4.3 × 10^−4
same,"T helper cell frequency, graft",[2]; 82 d biopsy,3.3×10^−4
same,"T helper cell frequency, graft","[2]; 82 d biopsy, listed as pp22-35",3.3 × 10^−4
"GDTRPRFLWQLKFECHFFNG (GDTRPRFLWQLKFECHFFNG) [pp 1-20, residues 1-20 of Drβ1*0101 chain]",blastogenesis after in vitro immunization of PBMC,[3],elicited blastogenesis
same,reactivity of TCL LZ-anti-pp 1-20,"TCL LZ-anti-pp 1-20; autologous APCs, various concentrations, FIG. 1",stimulated strongly
same,HLA-DR restriction of peptide recognition by TCL anti-pp 1-20,"TCL LZ-anti-pp 1-20; autologous and allogeneic APCs, FIG. 2A",only when presented by APCs carrying the Drβ1*1101 allele
"K G N N D E S N I S F K E K D (KGNNDESNISFKEKD) [NDA4-derived peptide, irrelevant synthetic peptide corresponding to the N-terminus of the NDA4 molecule, reference compound]",TCL-ZL response to pp 22-35 in the presence of irrelevant peptide,TCL LZ-anti-pp 21-42; pp 22-35 at plus NDA4-derived peptide at 30-50 μM,15-17×10^3 cpm
same,viability of T cells grown with peptide alone,[4],unaffected
K R A A V D T Y C R H N Y G (KRAAVDTYCRHNYG) [4/71-84],optimal dose required for inducing maximal proliferation of TCR-PR,TCL-PR,5 μg/ml and approximately 5×10^−7 M
same,potency in stimulating the proliferative response of TCL-PR (core epitope of DR4/69-88),TCL-PR,most potent
"TERVRLLERCIYNQEESVREDS (TERVRLLERCIYNQEESVREDS) [pp 21-42, residues 21-42 of Drβ1*0101 chain]",blastogenesis after in vitro immunization of PBMC,[3],elicited blastogenesis
same,reactivity of TCL LZ-anti-pp 21-42,"TCL LZ-anti-pp 21-42; autologous APCs, various concentrations, FIG. 1B",reacted vigorously
same,HLA-DR restriction of peptide recognition by TCL anti-pp 21-42,"TCL LZ-anti-pp 21-42; autologous and allogeneic APCs, FIG. 2B",only when presented by APCs carrying the Drβ1*1101 allele
